The numbers were not newly measured in patent publication US9107921B2, “Oral dosage forms for oxygen containing active agents and oxyl-containing polymers” (Spriaso LLC, priority 2012, dated 2015), which cites them from elsewhere.

The conditions of series [1]: for plasma half-life: in vivo.

Where a name gives a salt, the structure may show the parent alone.

On to `CN(C)CCC(c1ccc(Cl)cc1)c1ccccn1` (centres unmarked) [chlorpheniramine, Chlorpheniramine], for which the “time to 50% in vitro drug release” value (single-layer matrix tablet, HPMC polymer (Methocel K4M) to active ratio of about 1:1) is reported as “about 3.5 hours”. Also, the “time to peak plasma concentration” value in series [1] (following oral administration) is 2 to 3 h. In the case of `COc1ccc2c3c1O[C@H]1[C@@H](O)C=C[C@H]4[C@@H](C2)N(C)CC[C@@]341` [codeine, 3-methylmorphine], the plasma half-life in series [1] was 2.5 to 3 h. As to `CC(C)NCC(O)COc1cccc2ccccc12` (centres unmarked) [propranolol HCl], the “time to 50% drug release in vitro” value (matrix tablet, HPMC (Methocel K4M) to active agent ratio 1:0.3 by weight) is on record as “about 4 hours”. As for `COc1ccc2c3c1O[C@H]1C(=O)CC[C@H]4[C@@H](C2)N(C)CC[C@]314` [Hydrocodone], the plasma half-life in series [1] was 3.8 to 6 h.
